Assay [1] concerns the target T1, Human immunodeficiency virus type 1 integrase (Human immunodeficiency virus 1, UniProt Q7ZJM1). Kind of assay: Inhibition of HIV1 recombinant integrase 3' processing activity using [32P]-radiolabeled full-length DNA as substrate after 1 hr by densitometric analysis.
Assay [2] addresses T1, Human immunodeficiency virus type 1 integrase. Kind of assay: Inhibition of HIV1 recombinant integrase strand transfer activity using [32P]-radiolabeled full-length DNA as substrate after 1 hr by densitometric analysis.
Assay [3] has the same target. Description: Inhibition of HIV1 recombinant integrase strand transfer activity using precleaved LTR DNA as substrate after 1 hr by densitometric analysis.
Assay [4] addresses Human immunodeficiency virus type 1 integrase (Human immunodeficiency virus 1) (UniProt Q7ZJM1). Kind of assay: Selectivity ratio of IC50 for HIV1 recombinant integrase strand transfer activity using precleaved LTR DNA as substrate to IC50 for HIV1 recombinant integrase strand transfer activity using [32P]-radiolabeled full-length DNA as substrate.

T1 sequence (Q7ZJM1 whole entry): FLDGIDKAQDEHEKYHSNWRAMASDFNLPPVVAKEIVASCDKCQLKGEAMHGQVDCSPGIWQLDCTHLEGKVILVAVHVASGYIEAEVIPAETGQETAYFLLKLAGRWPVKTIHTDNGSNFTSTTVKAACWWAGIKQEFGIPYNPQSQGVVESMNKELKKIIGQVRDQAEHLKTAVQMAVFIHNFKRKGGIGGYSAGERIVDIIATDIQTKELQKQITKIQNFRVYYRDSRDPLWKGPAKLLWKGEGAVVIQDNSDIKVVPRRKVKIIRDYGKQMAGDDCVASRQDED
Sequence of Human immunodeficiency virus type 1 integrase (Human immunodeficiency virus 1) (Q7ZJM1 as listed by the source): as the sequence (Q7ZJM1 whole entry) above

For orientation: IC50 means the point on the concentration scale where inhibition reaches its midpoint. Consider `C[N+](C)(C)C.O=C1O[B-]2(OC1=O)OC(=O)C(=O)O2`, for which the IC50 in assay [1] was greater than 333 µM; in assay [2], 310 µM.
For the molecule `CCCCCCCCCCCCCCCCCC[n+]1ccn(C)c1` [listing 1 of 2 here], the results for the IC50 in assay [1], in assay [3] and in assay [2] were 1.7 µM, 3.5 µM and 1.1 µM, respectively.
Turning to `CCCCCCCCCCCCCCn1cc[n+](C)c1`, the IC50 in assay [1] was 55.2 µM; in assay [2], 20.2 µM.
For the molecule `CCCCCCCCCCCCCCCCn1cc[n+](C)c1`, the IC50 in assay [1] stood at 2.5 µM; in assay [3], 5.6 µM; in assay [2], 1.3 µM. In assay [4], the Ratio IC50 worked out at 3.
Consider `CCCCCCCCCCn1ccnc1`, for which the IC50 in assay [1] and in assay [2] was greater than 333 µM in each case.
As for `CCCCCCCCCCCCCCCCCCn1ccnc1`, the IC50 in assay [1] and in assay [2] was greater than 333 µM in each case.
As for `CCCCCCCCCCCCCCCCCC[n+]1ccn(C)c1.O=S(=O)([N-]S(=O)(=O)C(F)(F)F)C(F)(F)F`, the IC50 in assay [1] is 1.6 µM; in assay [3] it was 4 µM; in assay [2] it was 1.53 µM.
Turning to `C[N+](C)(C)C.FC(F)(F)C(F)(F)[P-](F)(F)(F)(C(F)(F)C(F)(F)F)C(F)(F)C(F)(F)F`, the results for the IC50 in assay [1] and in assay [2] were 138 µM and 38.5 µM, respectively.
For `CCCCCCCCN(CCCCCCCC)CCCCCCCC` the same measures were greater than 333 µM and greater than 333 µM.
The corresponding values for `CCCCCCCCN(C)CCCCCCCC` are greater than 333 µM and greater than 333 µM.
With `CCCCCCCCCCCCCCCCCC[n+]1ccn(C)c1` [listing 2 of 2 here], the IC50 in assay [2] was found to be 1.4 µM.
Consider `CCCCCCCC[n+]1ccccc1`, for which the IC50 in assay [1] and in assay [2] was greater than 100 µM in each case.
`CCCCCCCCCCn1cc[n+](C)c1`: the IC50 in assay [1] and in assay [2] was greater than 333 µM each time.
Regarding `CCCCCCCC[N+](C)(CCCCCCCC)CCCCCCCC` [listing 1 of 2 here], the IC50 in assay [1] was determined as 9 µM; in assay [2], 6.12 µM.
The corresponding values for `CCCCCCCC[N+](C)(CCCCCCCC)CCCCCCCC` [listing 2 of 2 here] are 6.8 µM and 2.8 µM.
The corresponding values for `CCCCCCCC[N+]1(C)CCCC1` are greater than 100 µM and greater than 100 µM.
For `CCCCCCCC[n+]1ccn(C)c1` the same measures were greater than 100 µM and greater than 100 µM.
Regarding `CCCCCCCCCCCCCCCCCCPCCCCCCCCCCCCCC.O=S(=O)(NS(=O)(=O)C(F)(F)F)C(F)(F)F` (stereo not given), the IC50 in assay [1] and in assay [2] was greater than 100 µM throughout.
`CCCCCCCC[N+](C)(CCCCCCCC)CCCCCCCC.O=S(=O)([N-]S(=O)(=O)C(F)(F)F)C(F)(F)F`: the IC50 in assay [1] is greater than 100 µM; in assay [2] it was 6.6 µM.
Consider `CN(C)C(N(C)C)N(C)C`, for which the IC50 in assay [1] and in assay [2] was greater than 100 µM in each case.
For the molecule `CCCCCCCCCCCCn1cc[n+](C)c1`, the IC50 worked out at 72 µM in assay [1] and 36.6 µM in assay [2].

Source of the values: ChEMBL document CHEMBL3217518, “Biological evaluation of imidazolium- and ammonium-based salts as HIV-1 integrase inhibitors” (Medchemcomm, 2011).
